Tested on: IL-1β mRNA
Experiment: Cytokine mRNA expression inhibitory ability, IL-1β, LPS-treated Raw264.7 cells
Format: cell-based
Details: 1 μM compound 24 hours, then 100 ng/ml LPS 24 hours
Description: Evaluation of cytokine mRNA expression inhibitory ability according to inflammatory response
In order to identify inhibition of p-p38 MAPK, inhibition of p38 MAPK was identified after treating each compound to Raw264.7 cells obtained by converting macrophages that induces inflammation according to p-p38 MAPK activity cancerous cells. Briefly, Raw264.7 cells were cultured in Dulbecco's modified Eagle Medium supplemented with 10% fetal bovine serum and penicillin/streptomycin (100 U/ml). Raw264.7 cells were treated with 1 μM of Compounds 1 to 5 according to the present disclosure in a culture dish respectively and cultured for 24 hours in a CO2 incubator, and then treated with 100 ng/ml of LPS, followed by additional culture for 24 hours in a CO2 incubator.
After cell culture was terminated according to the experimental conditions, cells were washed with cold phosphate buffered saline (PBS). The cells were then collected and centrifuged at 1200 rpm for 3 minutes. RNA was extracted according to the method provided in the Hybrid-R total RNA purification kit (GeneAll, 305-101). After measuring the concentration and purity of RNA using Nanodrop, cDNA was synthesized according to the method provided in TOPscript RT DryMIX (Enzynomics, RT200). After a reaction at 95° C. for 3 minutes using SYBR Green Mix along with primer, cDNA was subjected to repetitive reactions 30 times at 95° C. for 10 seconds, at 55° C. for 10 seconds, and at 72° C. for 30 seconds to determine the RNA expression level. The results are shown in Tables 5 and 6 below and FIGS. 1 and 2.

## Cc1c(F)cc(C(=O)NC2CC2)cc1-c1ccc(C(=O)c2c[nH]c3ccccc23)cn1 [Compound 4, 3-(5-(1H-indole-3-carbonyl)pyridin-2-yl)-N-cyclopropyl-5-fluoro-4-methylbenzamide]
  IL-1β mRNA inhibition: 38.2%
